Measurements as given in patent publication US12516058B2, “Small-molecule compounds for controlling endosomal toll-like receptors and therapeutic agent for autoimmune diseases using same” (priority 2020, dated 2026).
“Also recorded” adds a separate entry of the source.

These compounds were tested against T1, TLR9 (Mus musculus, UniProt Q9EQU3) (assay: TNF-α secretion ELISA after TLR9 agonist ODN2395 in RAW 264.7 cells). Conditions: SK01 and structural derivatives, inhibitor 1 h, then ODN2395 4 h.
T1 construct: endogenous in cells; host or cells: RAW 264.7
T1 sequence (Q9EQU3 26-1032): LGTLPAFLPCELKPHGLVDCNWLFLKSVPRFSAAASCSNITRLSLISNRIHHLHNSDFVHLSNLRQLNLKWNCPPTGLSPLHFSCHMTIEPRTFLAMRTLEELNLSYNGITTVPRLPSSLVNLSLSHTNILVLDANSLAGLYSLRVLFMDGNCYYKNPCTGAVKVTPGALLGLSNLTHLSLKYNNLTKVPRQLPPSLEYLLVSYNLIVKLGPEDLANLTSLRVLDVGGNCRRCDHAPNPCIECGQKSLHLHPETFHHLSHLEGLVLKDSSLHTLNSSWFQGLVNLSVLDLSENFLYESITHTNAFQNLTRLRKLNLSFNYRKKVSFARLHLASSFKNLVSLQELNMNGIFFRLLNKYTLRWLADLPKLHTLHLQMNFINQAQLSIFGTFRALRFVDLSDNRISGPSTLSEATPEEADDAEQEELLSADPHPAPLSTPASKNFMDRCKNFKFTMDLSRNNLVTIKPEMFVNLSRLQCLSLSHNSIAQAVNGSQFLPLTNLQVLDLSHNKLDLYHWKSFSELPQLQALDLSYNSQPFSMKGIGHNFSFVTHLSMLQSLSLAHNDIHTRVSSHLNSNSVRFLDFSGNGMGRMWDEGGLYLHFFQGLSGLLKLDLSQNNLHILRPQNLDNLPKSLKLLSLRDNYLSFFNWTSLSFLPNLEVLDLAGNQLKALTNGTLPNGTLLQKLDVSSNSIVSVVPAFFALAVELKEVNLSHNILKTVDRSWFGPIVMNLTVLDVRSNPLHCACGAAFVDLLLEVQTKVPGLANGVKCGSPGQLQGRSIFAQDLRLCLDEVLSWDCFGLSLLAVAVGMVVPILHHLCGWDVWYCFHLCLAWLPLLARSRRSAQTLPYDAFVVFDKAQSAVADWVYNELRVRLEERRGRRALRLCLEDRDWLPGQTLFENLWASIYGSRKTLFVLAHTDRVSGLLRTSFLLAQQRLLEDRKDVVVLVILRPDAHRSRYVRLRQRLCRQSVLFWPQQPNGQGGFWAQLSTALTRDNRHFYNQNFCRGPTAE
Assay type: cell-based
Protocol: In order to determine the inhibitory activities of the test-ligand, RAW 264.7 cells were pretreated with each candidate compound for 1 hour, then treated with Pam3CSK4 (synthetic triacyl lipopeptide; TLR1/2, Invitrogen), FSL-1 (synthetic diacyl lipoprotein, TLR2/6, 100 ng/ml), lipopolysaccharide (LPS, TLR4, Sigma Aldrich), imiquimod (IMQ, TLR7, Invitrogen), and ODN2395 (type C CpG repeat motif DNA oligo(5′-[…]-3), TLR9, Bioneer) ligand for 4 hours, and treated with poly I:C (I:C repeat motif double-stranded RNA, TLR3, Invitrogen) and TL8-506 (TLR8, Invitrogen) showing delayed reactivity for 24 hours. After activation of TLR, the supernatant was diluted in an appropriate ratio so as to measure within the standard dose range, transferred to a pre-coated 96-well assay plate, and then treated with mouse TNF-alpha secretion level in accordance with the manufacturer's instructions using a mouse-TNF-alpha ELISA-kit (Invitrogen).
In order to plot the concentration-dependent LC50 curves, treatment with the SK series ligands at different concentrations up to 200 μM (the highest concentration that could be treated within the level of 0.5% DMSO) was performed. Then, cell viability and toxicity response upon treatment with ligands were analyzed by MTT as described in Examples 1-3. Cell viability in each plot was normalized from negative control (100%; no treatment) to positive control (highest concentration of test-ligand), and LC50 was determined by non-linear regression (Graph Pad Prism 7.0). In order to plot the concentration-dependent IC50 curves, pre-treatment with the SK series ligands was performed at different concentrations up to 50 μM (twice the initial concentration). Cell responses mediated by TLR7 and TLR9 (levels of TNF-α secretion) were analyzed by ELISA as described in Examples 1-4. The cytokine level in each plot was normalized from negative control (non-treated) to positive control (treatment with ligand), and IC50 was determined by non-linear regression (Graph Pad Prism 7.0).
In order to select potential inhibitory molecules against TLR3/TLR7/TLR8/TLR9 activation, first, MTT (3-(4,5-dimethylthiazol-2-yl)-2,5-diphenyltetrazolium bromide) cell viability assay (FIG. 7) was performed upon treatment with a set of ligands from SK21 to SK82 at a concentration of 20 μM and the inhibitory activity thereof was evaluated by an ELISA assay to monitor the level of TNF-α secretion in RAW 264.7 cells. The experimental ligands from SK21 to SK82 were administered at 0.5 μM or 2 μM to the RAW 264.7 cells and stimulated with Imiquimod (TLR7, 1 μg/ml) and OND2395 (TLR9, 0.5 μM).

| SMILES | inhibitory activity against TLR9 activation (TNF-α secretion) |
| --- | --- |
| Cc1c(C)n(CCN(C)C)c2nc3c(c(N)c12)CCCCC3 [SK01, 1-(2-(dimethylamino)ethyl)-2,3-dimethyl-1,5,6,7,8,9-hexahydrocyclohepta[b]pyrrolo[3,2-e]pyridin-4-amine] | inhibitory ability for TLR7/TLR9 activation was verified; also recorded: specifically inhibit |
| Cc1c(C)n(CCCN(C)C)c2nc3c(c(N)c12)CCCCC3 [SK16, 1-(3-(dimethylamino)propyl)-2,3-dimethyl-1,5,6,7,8,9-hexahydrocyclohepta[b]pyrrolo[3,2-e]pyridin-4-amine] | potent inhibitor; also recorded: best inhibitory activity among the structural analogues of SK01; also recorded: specifically inhibit |

Same assay, conditions: SK21 to SK82 at 0.5 μM or 2 μM, ODN2395 0.5 μM

| SMILES | inhibitory activity against TLR9 (level of TNF-α secretion) |
| --- | --- |
| Cc1cc2c(N)c3c(nc2n1CCCN(C)C)CCCCCC3 [SK41, 1-(3-(dimethylamino)propyl)-2-methyl-5,6,7,8,9,10-hexahydro-1H-cycloocta[b]pyrrolo[3,2-e]pyridin-4-amine] | significant inhibitory activity; also recorded: significantly reduced |
| COc1ccc2c(c1)c1c(N)c3c(nc1n2CCCN(C)C)CCCC3 [SK50, 6-(3-(dimethylamino)propyl)-9-methoxy-2,3,4,6-tetrahydro-1H-indolo[2,3-b]quinolin-11-amine] | significant inhibitory activity; also recorded: significantly reduced |
| Cc1ccc2c(c1)c1c(N)c3c(nc1n2CCCN(C)C)CCCC3 [SK58, 6-(3-(dimethylamino)propyl)-9-methyl-2,3,4,6-tetrahydro-1H-indolo[2,3-b]quinolin-11-amine] | significant inhibitory activity; also recorded: significantly reduced |
| COC(=O)c1ccc2c(c1)c1c(N)c3c(nc1n2CCCN(C)C)CCCC3 [SK64, Methyl 11-amino-6-(3-(dimethylamino)propyl)-2,3,4,6-tetrahydro-1H-indolo[2,3-b]quinolin-9-carboxylate] | significant inhibitory activity; also recorded: significantly reduced |
